The text below walks through data of patent US7223791B2, “Function regulator for retinoid relative receptor” (Takeda Pharmaceutical Company Limited, priority 2001, dated 2007).

Structures are written as SMILES.

The first data set deals with T1, PPARγ-RXRα heterodimer (Homo sapiens, UniProt P19793+P37231).
T1 construct: 1.4 kb DNA fragment containing PPARγ gene was recovered from the gel; 1.4 kb DNA fragment containing RXRα gene was recovered from the gel; expressed in transfected cells
T1 sequence (P37231 1-477 isoform P37231-2): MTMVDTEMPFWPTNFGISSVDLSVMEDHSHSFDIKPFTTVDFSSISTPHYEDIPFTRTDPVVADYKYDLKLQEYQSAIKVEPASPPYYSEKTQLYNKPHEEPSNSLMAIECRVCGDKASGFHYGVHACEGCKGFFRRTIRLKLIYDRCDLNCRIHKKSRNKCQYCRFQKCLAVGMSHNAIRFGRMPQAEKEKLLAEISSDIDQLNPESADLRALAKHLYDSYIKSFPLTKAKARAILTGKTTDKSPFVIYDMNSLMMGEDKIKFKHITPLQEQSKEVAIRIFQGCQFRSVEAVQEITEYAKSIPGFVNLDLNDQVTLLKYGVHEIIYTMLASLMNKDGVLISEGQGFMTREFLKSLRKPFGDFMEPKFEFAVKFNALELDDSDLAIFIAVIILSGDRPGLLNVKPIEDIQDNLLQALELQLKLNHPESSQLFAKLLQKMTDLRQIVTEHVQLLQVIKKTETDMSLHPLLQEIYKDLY
T1 sequence (P19793 1-462): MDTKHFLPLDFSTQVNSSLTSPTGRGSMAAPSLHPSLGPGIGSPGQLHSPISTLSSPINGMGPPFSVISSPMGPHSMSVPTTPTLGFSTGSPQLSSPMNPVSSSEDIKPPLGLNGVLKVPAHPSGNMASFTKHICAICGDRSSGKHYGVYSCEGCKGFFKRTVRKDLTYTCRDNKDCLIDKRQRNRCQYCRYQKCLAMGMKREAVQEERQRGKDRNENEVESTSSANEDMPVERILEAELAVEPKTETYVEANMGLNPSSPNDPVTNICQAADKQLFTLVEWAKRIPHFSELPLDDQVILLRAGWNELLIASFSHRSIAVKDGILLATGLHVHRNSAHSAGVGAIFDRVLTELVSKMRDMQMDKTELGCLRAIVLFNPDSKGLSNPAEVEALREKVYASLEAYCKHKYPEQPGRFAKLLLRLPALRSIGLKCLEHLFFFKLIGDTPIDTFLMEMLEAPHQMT
The data set can be described thus: PPARγ-RXRα heterodimer ligand activity (luciferase reporter, PPARγ:RXRα:4ERPP/CHO-K1 cells). The conditions noted are these: 48 hrs, concentration for 50% of the maximum fold induction. It is filed as cell-based. As for the experimental part:
(PPARγ-RXRα Heterodimer Ligand Activity)
PPARγ: RXRα: 4ERPP/CHO-K1 cells obtained in the following Reference Example 5 were cultured in HAM F12 medium (manufactured by NISSUI SEIYAKU) containing 10% fetal bovine serum [manufactured by Life Technologies, Inc., USA], seeded in a 96-well white plate [manufactured by Corning Coster Corporation, USA] at the density of 2×10^4 cells/well and cultured in a CO2 gas incubator at 37° C. overnight.
After washing the 96-well white plate with PBS (Phosphate-buffered saline), 90 μl of HAM F12 medium containing 0.1% fatty acid-free bovine serum albumin (BSA) and 10 μl of test compound were added, and the cells were cultured in a CO2 gas incubator at 37° C. for 48 hrs. The medium was removed and 40 μl of PicaGene 7.5 (manufactured by Wako Pure Chemical Industries, Ltd.) was added. After stirring, the luciferase activity was determined using Lumistar [manufactured by BMG Labtechnologies GmbH, Germany].
The fold induction was calculated from the luciferase activity of each test compound when the luciferase activity of the test compound non-administration group is taken as 1. The values of the test compound concentration and the fold induction were analyzed using PRISM 2.01 (produced by GraphPad Software Inc. USA) to calculate the EC50 values, the concentration of a test compound for 50% of the maximum fold induction. The results are shown in [Table 2].
Introduction of Human PPARγ- and RXRα-Expression Plasmid and Reporter Plasmid into CHO-K1 Cell as Well as Establishment of Expressed Cell
A CHO-K1 cell cultured in a tissue culture flask (750 ml) [produced by Corning Costar Corporation, USA] containing HAM F12 medium (produced by NISSUI SEIYAKU) supplemented with 10% fetal bovine serum [produced by Life Technologies, Inc., USA] was scraped by treating with 0.5 g/L trypsin-0.2 g/L EDTA (ethylenediamine tetraacetate) [produced by Life Technologies, Inc., USA], and then the cell was washed with PBS (Phosphate-buffered saline)[produced by Life Technologies, Inc., USA], centrifuged (1000 rpm, 5 minutes) and suspended in PBS. Subsequently, DNA was introduced into the cell under the conditions shown below using GENE PULSER (produced by Bio-Rad Laboratories, USA).
Namely, to a cuvette having a 0.4 cm gap were added 8×10^6 cells and 10 μg of plasmid pVgRXR2-hPPARγ obtained in Reference Example 3 and 10 μg of reporter plasmid pGL3-4ERPP-TK neo obtained in Reference Example 4, which was subjected to electroporation at the voltage of 0.25 kV under the capacitance of 960 μF. Subsequently, the cell was transferred into a HAM F12 medium containing 10% fetal bovine serum and cultured for 24 hours, and then the cell was scraped again and centrifuged, and then suspended in HAM F12 medium containing 10% fetal bovine serum supplemented with 500 μg/ml of Geneticin [produced by Life Technologies, Inc., USA] and 250 μg/ml of Zeocin (produced by Invitrogen, USA). The obtained suspension was diluted to the density of 10^4 cells/ml and inoculated in a 96-well plate [produced by Corning Costar Corporation, USA], which was cultured in a CO2 gas incubator at 37° C., whereby obtaining a Geneticin- and Zeocin-resistant transformant.
Subsequently, after the transformant cell line thus obtained was cultured in a 24-well plate [produced by Corning Costar Corporation, USA], a cell line in which the luciferase was expressed and induced, i.e., PPARγ: RXRα: 4ERPP/CHO-K1 cell was selected by the addition of 10 μM pioglitazone hydrochloride.
(In a reporter assay the amount or activity of a reporter protein is the signal.)
As usually defined, the EC50 is the concentration needed to bring the measured effect to its halfway point. `O=C(O)c1ccc(-c2cc(-c3ccc(C(F)(F)F)cc3)no2)cc1` [Example 26, 4-[3-(4-trifluorophenyl)-5-isoxazolyl]benzoic acid] gave an EC50 of 23 nM.

System in the next data set: not given
Experiment: not given
Settings: not given
By melting point is commonly meant the temperature, or range, at which the solid turns liquid. `O=C(O)c1ccc(-c2nc(-c3ccccc3)ccc2Cl)cc1` [Example 2, 4-(3-chloro-6-phenyl-2-pyridyl)benzoic acid] yielded a melting point of 254 to 255 °C.
In turn, `COC(=O)c1ccc(-c2nnc(-c3ccc(C(F)(F)F)cc3)o2)c([N+](=O)[O-])c1` [Example 67, methyl 3-nitro-4-[5-(4-trifluoromethylphenyl)-1,3,4-oxadiazol-2-yl]benzoate] registered a melting point of 173 to 174 °C.
Compound `COC(=O)c1ccc(-c2nnc(-c3ccc(C(F)(F)F)cc3)o2)c(N)c1` [Example 76, methyl 3-amino-4-[5-(4-trifluoromethylphenyl)-1,3,4-oxadiazol-2-yl]benzoate] came in with a melting point of 237 to 238 °C.
In the case of `CCOC(=O)c1cccc(-c2ccc(-c3ccc(C(F)(F)F)cc3)o2)c1` [Example 5, ethyl 3-[5-(4-trifluoromethylphenyl)-2-furyl]benzoate], the melting point was in the range of 93 to 94 °C.
In turn, `O=C(O)c1ccc(-c2nnc(-c3ccc(C(F)(F)F)cc3)s2)cc1` [Example 59, 4 [5-(4-trifluoromethylphenyl)-1,3,4-thiadiazol-2-yl]benzoic acid] yielded a melting point above 300 °C.
In turn, `O=C(O)c1ccc(-c2nc(-c3ccc(Cl)cc3)no2)c([N+](=O)[O-])c1` [Example 62, 4-[3-(4-chlorophenyl)-1,2,4-oxadiazol-5-yl]-3-nitrobenzoic acid] gave a melting point of 257 to 258 °C.
`O=C(O)c1cccc(-c2nnc(-c3ccc(C(F)(F)F)cc3)o2)c1` [Example 51, 3-[5-(4-trifluoromethylphenyl)-1,3,4-oxadiazol-2-yl]benzoic acid] displayed a melting point of 239 to 240 °C.
`O=C(O)c1cc(-c2ccc(-c3ccc(C(F)(F)F)cc3)o2)ccc1O` [Example 12, 5-[5-(4-trifluoromethylphenyl)-2-furyl]salicylic acid] showed a melting point of 272 to 273 °C.
With `Nc1cc(C(=O)O)ccc1-c1nc(-c2ccc(Cl)cc2)no1` [Example 64, 3-amino-4-[3-(4-chlorophenyl)-1,2,4-oxadiazol-5-yl]benzoic acid], the melting point is 294 to 296 °C (dec.).
Compound `O=C(O)c1ccc(-c2n[nH]c(-c3ccccc3)n2)cc1` [Example 38, 4-(5-phenyl-1H-1,2,4-triazol-3-yl)benzoic acid] gave a melting point above 300 °C.
For `COC(=O)c1cccc(-c2cc(-c3ccc(C(F)(F)F)cc3)on2)c1` [Example 31, methyl 3-[5-(4-trifluoromethylphenyl)-3-isoxazolyl]benzoate], the melting point was in the range of 139 to 140 °C.
Still for that read-out and setting: the figure for `CC(C)(C)c1ccc(-c2nnc(-c3ccc(C(=O)O)cc3[N+](=O)[O-])o2)cc1` [Example 70, 4-[5-(4-t-butylphenyl)-1,3,4-oxadiazol-2-yl]-3-nitrobenzoic acid] is 233 to 235 °C.
`Nc1ccccc1-c1nnc(-c2ccc(C(=O)O)cc2)o1` [Example 55, 4-[5-(2-aminophenyl)-1,3,4-oxadiazol-2-yl]benzoic acid]: the melting point was above 300 °C.
In the case of `O=C(O)c1ccc(-c2nc(-c3ccc(C(F)(F)F)cc3)no2)c([N+](=O)[O-])c1` [Example 63, 3-nitro-4-[3-(4-trifluoromethylphenyl)-1,2,4-oxadiazol-5-yl]benzoic acid], the melting point lay in the range of 233 to 234 °C.
Consider `COC(=O)c1cccc(-c2cc(-c3ccc(Cl)cc3)on2)c1` [Example 22, methyl 3-[5-(4-chlorophenyl)-3-isoxazolyl)benzoate], for which the melting point is 157 to 158 °C.
Same read-out and setting: then `O=C(O)c1ccc(-c2nnc(-c3ccccc3)o2)cc1` [Example 48, 4-[5-phenyl-1,3,4-oxadiazol-2-yl]benzoic acid], with above 300 °C; and `COC(=O)c1ccc(-c2nc(-c3ccc(Cl)cc3)no2)c([N+](=O)[O-])c1` [Example 60, methyl 4-[3-(4-chlorophenyl)-1,2,4-oxadiazol-5-yl]-3-nitrobenzoate], with 189 to 190 °C; and `O=C(O)c1ccc(-c2nc(-c3cccc(Oc4ccccc4)c3)no2)cc1` [Example 79, 4-[3-(3-phenoxyphenyl)-1,2,4-oxadiazol-5-yl]benzoic acid], with 292 to 293 °C.
Turning to `O=Cc1ccc(-c2noc(-c3ccc(C(F)(F)F)cc3)n2)cc1` [Example 77, 4-[5-(4-trifluoromethylphenyl)-1,2,4-oxadiazol-3-yl]benzaldehyde], the melting point was in the range of 145 to 146 °C.
Same read-out and setting: the figure for `Nc1cc(C(=O)O)ccc1-c1nnc(-c2ccc(C(F)(F)F)cc2)o1` [Example 71, 3-amino-4-[5-(4-trifluoromethylphenyl)-1,3,4-oxadiazol-2-yl]benzoic acid] is above 300 °C; for `CC(C)(C)c1ccc(-c2nnc(-c3ccc(C(=O)O)cc3)o2)cc1` [Example 50, 4-[5-(4-t-butylphenyl)-1,3,4-oxadiazol-2-yl]benzoic acid] it is 284 to 286 °C; for `COC(=O)c1ccc(-c2nnc(-c3ccc(C(C)(C)C)cc3)o2)c([N+](=O)[O-])c1` [Example 68, methyl 4-[5-(4-t-butylphenyl)-1,3,4-oxadiazol-2-yl]-3-nitrobenzoate] it is 142 to 143 °C.
`COC(=O)c1ccc(-c2nnc(-c3ccc(C(C)(C)C)cc3)o2)cc1` [Example 47, methyl 4-[5-(4-t-butylphenyl)-1,3,4-oxadiazol-2-yl]benzoate] came in with a melting point of 210 to 211 °C.
For `O=C(O)c1ccc(-c2nc(-c3ccc(C(F)(F)F)cc3)no2)cc1` [Example 42, 4-[3-(4-trifluoromethylphenyl)-1,2,4-oxadiazol-5-yl]benzoic acid], the melting point was 293 to 294 °C.
Take `NC(=O)c1ccc(-c2ccc(-c3ccc(C(F)(F)F)cc3)o2)cc1` [Example 73, 4-[5-(4-trifluoromethylphenyl)-2-furyl]benzamide]: the melting point was 263 to 264 °C.
In turn, `COC(=O)c1ccc(-c2cc(-c3ccc(C(F)(F)F)cc3)on2)cc1` [Example 32, methyl 4-[5-(4-trifluoromethylphenyl)-3-isoxazolyl]benzoate] came in with a melting point of 183 to 184 °C.
